Legend:
[1] = target: T1, Carbonic anhydrase (Saccharomyces cerevisiae S288c, UniProt P53615); assay: Inhibition of Saccharomyces cerevisiae carbonic anhydrase overexpressed in Escherichia coli BL21 (DE3) by CO2 hydration stopped-flow assay
T1 sequence (P53615 whole entry): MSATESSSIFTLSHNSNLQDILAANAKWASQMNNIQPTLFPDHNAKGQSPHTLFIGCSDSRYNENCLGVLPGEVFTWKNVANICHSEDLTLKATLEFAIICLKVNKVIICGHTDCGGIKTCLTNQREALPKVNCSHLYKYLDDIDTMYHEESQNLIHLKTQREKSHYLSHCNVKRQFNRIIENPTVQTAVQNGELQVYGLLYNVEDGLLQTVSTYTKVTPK

[2] = target: T2, Carbonic anhydrase (Candida albicans (strain SC5314 / ATCC MYA-2876) (Yeast), UniProt Q5AJ71); assay: Inhibition of Candida albicans carbonic anhydrase overexpressed in Escherichia coli BL21 (DE3) by CO2 hydration stopped-flow assay
T2 sequence (Q5AJ71 whole entry): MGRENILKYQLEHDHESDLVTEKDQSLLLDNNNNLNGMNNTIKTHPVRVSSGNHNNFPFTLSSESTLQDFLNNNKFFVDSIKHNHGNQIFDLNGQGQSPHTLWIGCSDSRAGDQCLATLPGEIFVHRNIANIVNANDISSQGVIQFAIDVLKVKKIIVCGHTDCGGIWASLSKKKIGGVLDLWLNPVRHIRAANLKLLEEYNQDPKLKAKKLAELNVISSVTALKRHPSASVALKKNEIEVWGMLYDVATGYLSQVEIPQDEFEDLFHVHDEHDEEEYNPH

[3] = target: T1, Carbonic anhydrase; assay: Inhibition of Saccharomyces cerevisiae carbonic anhydrase by stopped-flow CO2 hydration assay

Row | Structure (SMILES) | Ki [1] | Ki [2] | Ki [3]
1 | NS(N)(=O)=O [SULFAMIDE] | 8.7 µM | 300 µM | 
2 | OB(O)c1ccccc1 [PHENYLBORONIC ACID] | 38200 µM | 30900 µM | 
3 | NS(=O)(=O)O [SULFAMATE] | 840 µM | 700 µM | 
4 | CCOc1ccc2nc(S(N)(=O)=O)sc2c1 [ETHOXZOLAMIDE] |  |  | 16 µM

— ChEMBL document CHEMBL1152192, “Carbonic anhydrase inhibitors. Inhibition of the beta-class enzyme from the yeast Saccharomyces cerevisiae with anions” (Bioorg Med Chem Lett, 2008)
